Results taken from patent US4226885A, “Guanylhydrazones and medicaments containing them” (Choay S.A., priority 1977, dated 1980).
Read-outs that look alike come from different tables or passages of the source.

What was measured:
Lipidium sativum = assay: Inhibition of the growth of the root meristem of Lipidium sativum (vegetable cells); format: in vivo; conditions: for inhibiting activity (root growth, in words): Lipidium sativum test
Method: The test of the inhibition of the growth of the root meristem of Lipidium sativum was used, which test is used to evaluate the cytostatic action of series of drugs. It consists in placing germinated grains of Lipidium sativum in 15 ml. of aqueous solution containing 1% of methyl cellulose, in which the guanyl hydrazones are placed in suspension.
After leaving in darkness for 24 hours at the temperature of 27° C., the elongation of the root in comparison with that of a control batch (Li Lipidium sativum grain in methyl cellulose medium) is determined.
The validity of the linear model was evaluated with the aid of test F: [formula]
In the example supplied, for the calculation of the confidence interval for α=0.05, one finds:
that is to say one has five chances per hundred, if one repeats another series of measurements, of finding a pI 50 outside this limit.

[1] = mouse; cited from earlier work
[2] = molecular target: rat liver monoaminoxydase; assay: I.M.A.O. activity: inhibition of rat liver monoaminoxydase (spectrophotometric, kynuramine as substratum); format: biochemical; conditions: 50% inhibition
Method: The inhibiting activity of the envisaged guanyl hydrazones in relation to rat liver monoaminoxydase was determined by means of a spectrophotometric method, using kynuramine as substratum.
The I.M.A.O. activity was determined for various concentrations of guanyl hydrazone. The concentrations for which one obtains 50% inhibition relate to the pI 50, which is calculated as follows: […]
For each concentration about ten experiments are carried out, from which the mean activity Yi is determined. Only concentrations giving a Yi between 15 and 85% of activity are retained.
Assume N concentrations Ci retained; to each Ci there correspond a certain number ni of experiments and a mean activity Yi.
Assume in all NT=Σni experiments.
(a) The equation of the straight line Yi =f (Ci) is calculated by the method of least squares.
To this straight line there are attached different statistic tests to express its validity, as straight line only.
Then the corresponding concentration is deduced for Y=50%.
(b) Statistical calculations permit evaluation of the legitimacy of the linear model. These calculations take account of all the points, that is to say NT experiments, whereas the straight line is determined from the mean activities only, which means that these calculations take account of the dispersion which affects every average.
(c) Calculation of the confidence interval for α=0.05.
The pI50 s of the compounds 1 to 7 appearing in Table I above were calculated by application of the method as just described; they have been listed in Table II below: […]

[3] = test system: fibro-sarcomas induced by methyl cholanthrene, tumour cells in culture; assay: Tumour culture: inhibition of multiplication of methyl cholanthrene-induced fibro-sarcoma cells in vitro; format: cell-based; conditions: Rattus norvegicus; for inhibition at 10 µM: 10^-5 molar; for inhibition at 1 µM: 10^-6 molar
Method: A supplementary study of the activity of these products upon the inhibition of growth of animal cells was effected by tumour culture. On fibro-sarcomas induced by methyl cholanthrene (O. Flandre et coll. C.R. Jour. biol. 1966. 160 152) the products were tested: upon tumour cells in culture "in vitro" and upon treated rats.
1. upon tumour cells in culture "in vitro" the results of the tested products are reported in Table IV below, which expresses the cellular count at the 72nd hour after sub-culture, in the presence of the substances to be studied.
The results are expressed in percentage of diminution of the number of cells in comparison with the control.
The determinations were effected with the products at three molar concentrations: 10^-4, 10^-5 and 10^-6.
This concerns fibro-sarcomas induced by methyl cholanthrene according to a technique described by O. FLANDRE, I. CIURANA, J. SECCHI and M. DAMON: Reports of the Sittings of the Biology Society, Volume 160, No. 1, 1966, page 152.
The products can be tested either upon tumour cells cultivated in vitro, or upon the rat treated by tumour cell injections either in situ or by intraperitoneal injection.
The preliminary experiments carried out with the substances according to the invention, tested on tumour cells cultivated in vitro, disclose a retardation of the cellular multiplication.

platelet aggregation = assay: Platelet anti-aggregant action (BORN's method); format: cell-based, human or rabbit; conditions: platelet-rich plasma, human blood or rabbit's blood; Table V; read-out: PI50 (platelet aggregation) (converted)
Method: The determination of the platelet aggregability was effected according to BORN's method, using a LABINTEC aggregometer.
Firstly a platelet-rich plasma (or PRP) and next a platelet-poor plasma (or PPP or PDP) are prepared from human blood or rabbit's blood, and the apparatus is calibrated.
Then the aggregating power of the plasma (PRP) is determined in relation to the PDP in the presence and in the absence of guanyl hydrazone. Thus it is possible to determine the percentage of inhibition of platelet aggregation as a function of the concentration. The curves obtained permit of determining a pI 50. […]

[4] = test system: fibro-sarcomas induced by methyl cholanthrene, tumour cells in culture; assay: Tumour culture: inhibition of multiplication of methyl cholanthrene-induced fibro-sarcoma cells in vitro; format: cell-based; conditions: Rattus norvegicus, read-out: percentage of inhibition in comparison with the control; heading: percentage of inhibition in comparison with the control; B3 tumour culture, 10^-3 M
Rat fibroblast cultures = assay: Action upon cultures of trypsinised fibroblasts; format: cell-based; conditions: read-out: percentage of inhibition in comparison with the control, heading: percentage of inhibition in comparison with the control, 10^-4 M, 48 and 72 hours
Method: Rat fibroblast cultures are concerned and the strains have been maintained for several years.
For single-layer cultivation in Roux flasks, Trypsinisation at 0.25% detaches the cells from the flask on the one hand and from one another on the other hand.
The cells are distributed in lamellated tubes at the rate of 250,000 cells per ml., where they are deposited.
The products to be tested are introduced at different dilutions, and left to act for 48 and 72 hours.
Next, the counting of the cells is effected (10 fields for 5 blades) and the results obtained are compared with control tumours which have not received the product to be tested.

[5] = test system: rat embryo cultures (muscle fragment); assay: Culture in explants: mitotic index of rat embryo cultures; format: cell-based
Method: This concerns rat embryo cultures kept for at least 6 months (muscle fragment). The explants are placed in culture in plasma coagulum (cock plasma). The cultures are fed with nutrient medium (Hanx+embryonary extract+decomplemented calf foetus serum). 24 hours after placing in plasma coagulum, the product to be tested is added at different dilutions. The cultures are examined on the 4th day and the counting of the number of mitoses is effected in the growth zone of the explants. The percentage of each of the phases of the mitosis is determined for the whole (mitotic index).

[6] = phenoxyacetic acid corresponding to the numbered guanyl hydrazone, root growth, read-out: Corresponding phenoxyacetic acid pI 50 (converted)
[7] = 50% inhibition of root growth, 24 hours, 27° C., darkness, read-out: pI 50 (guanyl hydrazones) (converted)
[8] = 72 h, 10^-4 molar, 72nd hour after sub-culture, read-out: percentage of diminution of the number of cells in comparison with the control
[9] = 72 h, 72nd hour after sub-culture, read-out: percentage of diminution of the number of cells in comparison with the control
[10] = concentration of 10^-4 mol, read-out: retardation of the cellular multiplication

SMILES	IC50 (Lipidium sativum; [6]) [µM]	pI 50 [2]	IC50 (Lipidium sativum; [7]) [µM]	inhibition at 100 µM [3, 8] [%]	inhibition at 10 µM [3, 9] [%]	inhibition at 1 µM [3, 9] [%]	IC50 (platelet aggregation) [µM]	also measured
O=C(O)COc1ccccc1 [1 (corresponding phenoxyacetic acid), reference compound]	631	–	–	–	–	–	–	–
O=C(O)COc1ccccc1Cl [2 (corresponding phenoxyacetic acid), reference compound]	112	–	–	–	–	–	–	–
N=C(N)NN=Cc1ccc([N+](=O)[O-])o1 [5-nitrofurfuraldehyde guanyl hydrazone]	–	–	–	–	–	–	–	anti-tumoral activity [1]: a certain anti-tumoral activity in the mouse
Cc1ccccc1OCC(=O)O [8 (corresponding phenoxyacetic acid), reference compound]	11	–	–	–	–	–	–	–
N=C(N)NN=CCOc1ccccc1 [Compound 1]	–	4.90	692	15.8	7.89	5.26	1200	inhibition at 1000 µM [4]: ~25%
N=C(N)NN=CCOc1ccccc1Cl [Compound 2, o-chlorophenoxy acetaldehyde guanyl hydrazone]	–	4.94	162	15.8	13.2	7.89	603	–
N=C(N)NN=CCOc1cccc(Cl)c1 [Compound 3]	–	4.70	33.9	31.6	26.3	0	490	inhibiting activity (root growth, in words) (Lipidium sativum): great inhibiting activity; inhibition at 100 µM [3, 10]: > 30%
N=C(N)NN=CCOc1ccc(Cl)cc1 [Compound 4]	–	4.70	7.24	36.8	23.7	7.89	562	pI 50 (guanyl hydrazones) (Lipidium sativum; 50% inhibition of root growth, 24 hours, 27° C., darkness): 5.14±0.08; inhibiting activity (root growth, in words) (Lipidium sativum): great inhibiting activity; inhibition at 100 µM [3, 10]: > 30%; inhibition at 100 µM (Rat fibroblast cultures): ~77%; mitotic index ([5]; 4th day, control culture 2.5%): 1.2%; number of mitoses at the metaphase level ([5]; vs control culture): significant reduction of the number of mitoses at the metaphase level; inhibition at 1000 µM [4]: ~45%
COc1ccccc1OCC=NNC(=N)N [Compound 5, o-methoxy phenoxy acetaldehyde guanyl hydrazone]	–	4.94	224	5.26	2.63	0	1100	–
